Assay results as given in patent US20250206719A1, “ALBICIDIN DERIVATIVES, THEIR USE AND SYNTHESIS” (TECHNISCHE UNIVERSITÄT BERLIN, priority 2022, published 2025).
Values after ≈ are worked out from the molar mass of the structure shown. Like-named read-outs stand apart in the source and are kept apart here.

Tests used:
E. coli BW25113 [1] = test: MIC determination (medium: MHBII/human serum (1:1)); type: cell-based; settings: Escherichia coli
Method: The test was carried out for bacterial strain, E. coli BW25113 (Gram-negative).
First, 20 μl of glycerol stock of the strain was inoculated in 20 mL LB followed by incubation overnight at 37° C., 200 r.p.m.
The serum was subjected to a heat shock (56° C./30 min in a water bath) before use.
The test inoculum was adjusted by the 0.5 McFarland Standard, so that each well contained approximately 5×10^5 c.f.u. mL^−1 in a final volume of 100 μL. For the adjustment of the test inoculum, MHBII medium and the human serum were used in a mixing ratio of 1:1.
For dilutions, the dry powders were dissolved in DMSO with a concentration of 2.56 mg mL-1 and serially diluted in DMSO (100%). Initial solution and serial dilutions of Ciprofloxacin were prepared in 0.1 N HCl.
Then, 95 μL of the adjusted inoculum was applied per well and 5 μl of each antibiotic dilution was applied to the microdilution tray to reach final concentrations of 8 to 0.016 μg ml^−1.
The antimicrobial effect of the solvent (DMSO or 0.1 N HCL) was tested by adding 5 μL DMSO or 0.1 N HCL to several wells.
One row of each well plate served as a growth control without antibiotic substances, and another row of the microdilution tray served as sterility control (MHB II-media).

S. typhimurium TA100 = test: MIC microdilution assay, S. typhimurium TA100; type: cell-based; settings: Salmonella enterica, 20 h, read-out: MIC S. typhimurium TA100
Method: (§1) The tests were performed using the micro dilution method.
(§2) The determination of MIC values was performed according to the ninth edition of the Approved Standard M07-A9 (CLSI. Methods for Dilution Antimicrobial Susceptibility Tests for Bacteria That Grow Aerobically; Approved Standard-Ninth Edition. CLSI document M07-A9. Wayne, PA: Clinical and Laboratory Standards Institute; 2012.)
(§3) The test was carried out for different bacterial strains (E. coli DSM 1116, E. coli BW25113 [gram negative], B. subtilis DSM 10 [gram positive], M. luteus DSM 1790 [gram positive], S. typhimurium TA100 [gram negative]) and M. phlei DSM 750. 20 μL of cryo stock of each strain were inoculated in 20 mL of LB media (Lysogeny broth: 10 g/L peptone, 5 g/L yeast extract, 5 g/L NaCl) followed by incubation over night at 37° C., 200 rpm. The test inoculum was adjusted by the 0.5 McFarland Standard (OD625 from 0.08 to 0.1). Within 15 min of preparation, the adjusted inoculum suspension was diluted in MHBII media (BBL TM Mueller-Hinton Broth II, Becton, Dickinson and Company, New Jersey/USA) so that each well contained approximately 5×10^5 CFU/mL in a final volume of 100 μL. 95 μL of the inoculum were applied per well and 5 μL of the (diluted) antibiotic substance were added.
(§4) Previously the dry antibiotic compounds were dissolved in DMSO (100%) with a concentration of 2560 μg/mL and the resulting stock solutions were further diluted in DMSO (100%). 5 μL of each antibiotic dilution were applied to the microdilution tray to reach final concentrations of 64 μg/mL to 0.008 μg/mL. One row of each well plate was left as a growth control without antibiotic substances and another row of the microdilution tray was used as sterility control (only MHB II-media). The antimicrobial effect of the solvent (DMSO) was tested by adding 5 μL DMSO to several wells without antibiotics. Purity check and cell titer control were performed according to International Standard M07-A9 on Mueller-Hinton II Agar (Mueller Hinton II Broth, 15 g/L agar-agar). Both microdilution trays and agar plates were incubated at 37° C. for 20 h and subsequently analyzed visually.

E. coli BW25113 [2] = test: MIC microdilution assay, E. coli BW25113; type: cell-based; settings: Escherichia coli, read-out: MIC E. coli BW25113
Method: as §1, §2, §3, §4

E. coli DSM 1116 = test: MIC microdilution assay, E. coli DSM 1116; type: cell-based; settings: Escherichia coli, read-out: MIC E. coli DSM1116
Method: as §1, §2, §3, §4

[3] = tested on: Micrococcus luteus DSM1790; test: MIC microdilution assay, M. luteus DSM 1790; type: cell-based; settings: read-out: MIC M. luteus DSM 1790
Method: as §1, §2, §3, §4

M. phlei DSM 750 = test: MIC microdilution assay, M. phlei DSM 750; type: cell-based, Mycobacterium phlei; settings: Mycolicibacterium phlei, read-out: MIC M. phlei DSM 750
Method: as §1, §2, §3, §4

Bacillus subtilis DSM10 = test: MIC microdilution assay, B. subtilis DSM 10; type: cell-based; settings: read-out: MIC B. subtilis DSM10
Method: as §1, §2, §3, §4

[4] = E. coli BW25113, MHBII/human serum 1:1, test range 8 to 0.016 μg/ml, read-out: MIC E. coli + 50% human serum
[5] = MHBII medium, 37° C., test range 64 to 0.008 μg/mL
[6] = BW25113, MHBII medium, 37° C., 20 h, test range 64 to 0.008 μg/mL
[7] = DSM1116, MHBII medium, 37° C., 20 h, test range 64 to 0.008 μg/mL
[8] = DSM1790, MHBII medium, 37° C., 20 h, test range 64 to 0.008 μg/mL
[9] = DSM750, MHBII medium, 37° C., 20 h, test range 64 to 0.008 μg/mL
[10] = DSM10, MHBII medium, 37° C., 20 h, test range 64 to 0.008 μg/mL

Row | Compound | MIC (E. coli BW25113 [1]; [4]) | MIC (S. typhimurium TA100; [5]) | MIC (E. coli BW25113 [2]; [6]) | MIC (E. coli DSM 1116; [7]) | MIC [3, 8] | MIC (M. phlei DSM 750; [9]) | MIC (Bacillus subtilis DSM10; [10]) | also measured
1 | COc1c(NC(=O)c2ccc(NC(=O)c3ccc(NC(=O)[C@H](Cc4c[nH]nn4)NC(=O)c4ccc(NC(=O)c5ccc6ncccc6c5)cc4)cn3)c(OC)c2O)ccc(C(=O)O)c1O (stereo in doubt) [Compound 2] | 4 µg/mL | ≤ 0.016 µg/mL | – | – | – | – | – | –
2 | COc1c(NC(=O)c2ccc(NC(=O)c3ccc(NC(=O)[C@H](Cc4c[nH]nn4)NC(=O)c4ccc(NC(=O)c5cc6ccccc6cn5)cc4)cn3)c(OC)c2O)ccc(C(=O)O)c1O (stereo in doubt) [Compound 10] | – | – | – | – | – | – | – | MIC (E. coli BW25113 [2]; BW25113, 20 h): ≤ 0.016 µg/mL; MIC (E. coli BW25113 [1]; BW25113, read-out: MIC E. coli + 50% human serum): 1 µg/mL; MIC (S. typhimurium TA100): ≤ 0.016 µg/mL; MIC (E. coli DSM 1116; DSM1116, 20 h): ≤ 0.016 µg/mL; MIC ([3]; DSM1790, 20 h): 0.063 µg/mL (≈ 0.0715 µM); MIC (M. phlei DSM 750; DSM750, 20 h): 1 µg/mL (≈ 1.14 µM); MIC (Bacillus subtilis DSM10; DSM10, 20 h): 0.063 µg/mL (≈ 0.0715 µM)
3 | COc1c(NC(=O)c2ccc(NC(=O)c3ccc(NC(=O)[C@H](Cc4c[nH]nn4)NC(=O)c4ccc(NC(=O)c5cc(=O)c6cc(F)ccc6o5)cc4)cn3)c(OC)c2O)ccc(C(=O)O)c1O (stereo in doubt) [Compound 12] | 8 µg/mL | ≤ 0.016 µg/mL | – | – | – | – | – | –
4 | COc1c(NC(=O)c2ccc(NC(=O)c3ccc(NC(=O)[C@H](Cc4c[nH]nn4)NC(=O)c4ccc(NC(=O)c5ccc6ccccc6n5)cc4)cn3)c(OC)c2O)ccc(C(=O)O)c1O (stereo in doubt) [Compound 13] | 2 µg/mL | ≤ 0.016 µg/mL | – | – | – | – | – | –
5 | COc1c(NC(=O)c2ccc(NC(=O)c3ccc(NC(=O)[C@H](Cc4c[nH]nn4)NC(=O)c4ccc(NC(=O)c5cc6cc(O)ccc6[nH]5)cc4)cn3)c(OC)c2O)ccc(C(=O)O)c1O (stereo in doubt) [Compound 14] | ≥ 8 µg/mL | 0.125 µg/mL (≈ 0.141 µM) | 0.125 µg/mL (≈ 0.141 µM) | – | – | – | – | –
6 | COc1c(NC(=O)c2ccc(NC(=O)c3ccc(NC(=O)C(Cc4c[nH]nn4)NC(=O)c4ccc(NC(=O)/C(C)=C/c5ccc(O)cc5)cc4)cn3)c(OC)c2O)ccc(C(=O)O)c1O (stereo not drawn) [3^RD GEN Alb i, reference compound] | 0.5 µg/mL | 0.016 µg/mL (≈ 0.0181 µM) | 0.016 µg/mL (≈ 0.0181 µM) | 0.016 µg/mL (≈ 0.0181 µM) | 0.031 µg/mL (≈ 0.035 µM) | 0.25 µg/mL (≈ 0.282 µM) | 0.031 µg/mL (≈ 0.035 µM) | –
7 | COc1c(NC(=O)c2ccc(NC(=O)c3ccc(NC(=O)[C@H](Cc4c[nH]nn4)NC(=O)c4ccc(NC(=O)c5ccc6nc(C)ccc6c5)cc4)cn3)c(OC)c2O)ccc(C(=O)O)c1O [Compound 1] | 0.5 µg/mL | ≤ 0.016 µg/mL | 0.016 µg/mL (≈ 0.0179 µM) | 0.016 µg/mL (≈ 0.0179 µM) | 0.063 µg/mL (≈ 0.0704 µM) | 0.5 µg/mL (≈ 0.559 µM) | 0.063 µg/mL (≈ 0.0704 µM) | –
8 | COc1c(NC(=O)c2ccc(NC(=O)c3ccc(NC(=O)[C@H](Cc4c[nH]nn4)NC(=O)c4ccc(NC(=O)c5cnc6ccccc6c5)cc4)cn3)c(OC)c2O)ccc(C(=O)O)c1O [Compound 3] | 2 µg/mL | ≤ 0.016 µg/mL | – | – | – | – | – | –
9 | COc1c(NC(=O)c2ccc(NC(=O)c3ccc(NC(=O)[C@H](Cc4c[nH]nn4)NC(=O)c4ccc(NC(=O)c5c[nH]c6ccccc6c5=O)cc4)cn3)c(OC)c2O)ccc(C(=O)O)c1O [Compound 4] | 2 µg/mL | ≤ 0.016 µg/mL | – | – | – | – | – | –
10 | CCn1cc(C(=O)Nc2ccc(C(=O)N[C@@H](Cc3c[nH]nn3)C(=O)Nc3ccc(C(=O)Nc4ccc(C(=O)Nc5ccc(C(=O)O)c(O)c5OC)c(O)c4OC)nc3)cc2)c(=O)c2cc3c(cc21)OCO3 [Compound 6] | 0.5 µg/mL | ≤ 0.016 µg/mL | – | – | – | – | – | –
11 | COc1c(NC(=O)c2ccc(NC(=O)c3ccc(NC(=O)[C@H](Cc4c[nH]nn4)NC(=O)c4ccc(NC(=O)c5ccc6nccnc6c5)cc4)cn3)c(OC)c2O)ccc(C(=O)O)c1O [Compound 7] | 1 µg/mL | ≤ 0.016 µg/mL | – | – | – | – | – | –
12 | COc1c(NC(=O)c2ccc(NC(=O)c3ccc(NC(=O)C(Cc4c[nH]nn4)NC(=O)c4ccc(NC(=O)c5ccc6ncsc6c5)cc4)cn3)c(OC)c2O)ccc(C(=O)O)c1O (stereo not drawn) [Compound 8] | 0.5 µg/mL | ≤ 0.016 µg/mL | ≤ 0.016 µg/mL | ≤ 0.016 µg/mL | – | 2 µg/mL (≈ 2.26 µM) | – | –
13 | COc1c(NC(=O)c2ccc(NC(=O)c3ccc(NC(=O)C(Cc4c[nH]nn4)NC(=O)c4ccc(NC(=O)c5ccc6nc[nH]c6c5)cc4)cn3)c(OC)c2O)ccc(C(=O)O)c1O (stereo not drawn) [Compound 9] | ≥ 8 µg/mL | 0.125 µg/mL (≈ 0.144 µM) | 0.125 µg/mL (≈ 0.144 µM) | 0.125 µg/mL (≈ 0.144 µM) | 2 µg/mL (≈ 2.3 µM) | 8 µg/mL (≈ 9.2 µM) | 2 µg/mL (≈ 2.3 µM) | –
14 | CCn1cc(C(=O)Nc2ccc(C(=O)N[C@@H](Cc3c[nH]nn3)C(=O)Nc3ccc(C(=O)Nc4ccc(C(=O)Nc5ccc(C(=O)O)c(O)c5OC)c(O)c4OC)nc3)cc2)c(=O)c2ccc(C)nc21 [Compound 11] | 8 µg/mL | ≤ 0.016 µg/mL | – | – | – | – | – | –
15 | COc1c(NC(=O)c2ccc(NC(=O)c3ccc(NC(=O)C(Cc4c[nH]nn4)NC(=O)c4ccc(NCc5ccc6ncccc6c5)cc4)cn3)c(OC)c2O)ccc(C(=O)O)c1O (stereo not drawn) [Compound 15] | 4 to 8 µg/mL | 0.031 µg/mL (≈ 0.0358 µM) | 0.031 µg/mL (≈ 0.0358 µM) | 0.063 µg/mL (≈ 0.0727 µM) | 0.125 µg/mL (≈ 0.144 µM) | 2 µg/mL (≈ 2.31 µM) | 0.25 to 0.5 µg/mL (≈ 0.288 to 0.577 µM) | –
16 | COc1c(NC(=O)c2ccc(NC(=O)c3ccc(NC(=O)C(Cc4c[nH]nn4)NC(=O)c4ccc(NC(=O)c5ccc6nn[nH]c6c5)cc4)cn3)c(OC)c2O)ccc(C(=O)O)c1O (stereo not drawn) [Compound 16] | 8 µg/mL | 0.125 µg/mL (≈ 0.144 µM) | 0.031 µg/mL (≈ 0.0356 µM) | 0.063 µg/mL (≈ 0.0723 µM) | 1 µg/mL (≈ 1.15 µM) | 4 to 8 µg/mL (≈ 4.59 to 9.19 µM) | 0.5 to 1 µg/mL (≈ 0.574 to 1.15 µM) | –
